Among the data in PMC11462456 (Chemical Science, 2024) are VHL homo-degradation and EC50 values, retold here.

What all share (format): cell-based
Assay [1] has as its target T1, VHL (Homo sapiens, UniProt P40337).
T1 construct: western blot analysis of the levels of CRBN and VHL E3 ligase in cell lysate; endogenous in cells; host or cells: HEK293 (ATCC)
In words: E3 ligase homo-degradation by western blot, VHL. Particulars: HEK293 cells, 4 h, 1 μM and 10 μM. The source says: 4. Biological experiments
Primary antibodies used for western blotting included anti-human BRD2(1:2000, rabbit monoclonal, Abcam, ab139690), anti-human BRD3 (1:1000, rabbit monoclonal, Abcam, ab264420), anti-human BRD4 (E2A7X) (1:1000, rabbit monoclonal, Cell Signaling Technology, #13440), anti-human VHL (1:1000, rabbit polyclonal, Cell Signaling Technology, #68547), anti-human CRBN (D8H3S) (1:1000, rabbit polyclonal, Cell Signaling Technology, #71810), anti-human alpha Tubulin, clone B-5-1-2 (1:5000, mouse monoclonal, Merck Life Science, # 32-2500).Secondary antibodies used for western blot included: anti-mouse horseradish peroxidase-linked antibody (1:3000, sheep, GE Healthcare Life Sciences, #NA931V), and anti-rabbit horseradish peroxidase-linked antibody (1:8000, donkey, GE Healthcare Life Sciences, #NA934V). Reagent for degradation assay and compounds […]
dr. Serge Van Calenbergh, Ghent University). […]
General method of Western blot: Lysates were sonicated and centrifuged at 4 °C at 20000 g for 15 min, and the supernatants were transferred to new tubes. Protein concentration of cell lysates was measured using the DC Protein Assay kit (BIO-RAD) following manufacturer's instructions. […]
Figure S5 Homo-degradation effect in Dual-ligand PROTACs. […] Subsequently, cell lysates were prepared and the protein levels of CRBN or VHL E3 ligase were assessed by Western blotting. […]

In assay [2] the test system is A549 cells. In words: CellTiter-Glo 2D metabolic activity assay, A549. As to conditions: Homo sapiens, 2D culture, 48 h. How it is done:
(§1) 4.4 Cell viability assay on 2D cells cultures
(§2) HEK293, HCT116, A549,andSKOV-3 cells were seeded in 96-well tissue culture plates at a density of 2000-3000 cells per well in 100 µl of growth medium and incubated overnight at 37 °C with 5% CO2. The following day, the cells were treated with various concentrations of compounds or 0.05% DMSO for 48 h. After treatment, add 100 μl of Cell Titer-Glo® 2.0 Reagent (cat. no. G9243, Promega) in each well, then the 96-well plates were put on an orbital shaker for 10 min and then allow the plate to incubate at room temperature for 10-20min to stabilize the luminescent signal. Luminescence readout (Gen5 Data Analysis Software v3.08.01) was performed to record luminescence.
(§3) (1 picture or pasted object on this page, not shown here)

Assay [3] relates to HEK293 cells. In words: CellTiter-Glo 2D metabolic activity assay, HEK293. Particulars: Homo sapiens, 2D culture, 48 h. The method, then: Figure S5 Homo-degradation effect in Dual-ligand PROTACs. HEK293 cells were treated with all synthesized PROTACs or 2V-alkyne/2P-alkyne for 4 hours. Subsequently, cell lysates were prepared and the protein levels of CRBN or VHL E3 ligase were assessed by Western blotting. (A) Representative image of CRBN or VHL E3 ligase homo-degradation was screened for all PROTACs and commercial single-ligand PROTACs at a concentration of 0.1, 1 and 10 µM, respectively (equivalent volume of DMSO as control group). (B) Representative image of CRBN or VHL E3 ligase homo-degradation was screened for 2P-alkyne or 2V-alkyne at a concentration of 0.1, 1 and 10 µM, respectively (equivalent volume of DMSO as control group). Experiments were performed as three independent replicates.
as §1
HEK293, HCT116, A549,andSKOV-3 cells were seeded in 96-well tissue culture plates at a density of 2000-3000 cells per well in 100 µl of growth medium and incubated overnight at 37 °C with 5% CO2. The following day, the cells were treated with various concentrations of compounds or 0.05% DMSO for 48 h. […] Luminescence readout (Gen5 Data Analysis Software v3.08.01) was performed to record luminescence. […]

Assay [4] relates to HCT116 cells. In words: CellTiter-Glo 2D metabolic activity assay, HCT116. As to conditions: Homo sapiens, HCT-116, 2D culture, 48 h. The method, then:
as §1, §2, §3

Assay [5] deals with A549 spheroids. In words: CellTiter-Glo 3D assay on spheroids. Particulars: Homo sapiens, 72 h, read-out: EC50, spheroid metabolic activity. The method, then: 4.5 Cell viability assay on 3D cell cultures
The single cell suspension containing 2.5 ×10^4 cells/ml of A549 or 2 ×10^4 cells/ml of HCT116 were seeded into the U-shaped, 384-well ULA plates (cat. no. MS-9384UZ, S-bio), each well containing 80 μl single cell suspension. The 384-well ULA plates were sealed with Breath-Easy semipermeable tape (cat. no. BEM-1, Diversified Biotech) to prevent evaporation. The spheroids were put into incubator and then cultured at 37 °C and 10% CO2. After 48h of spheroids formation, the spheroids were treated with various concentrations of compounds or 0.05% DMSO. After 72h treatment, each spheroid in the culture medium was pipetted into white micro-96-well plates (cat. no. 236108, ThermoFisher) and an equal volume of Cell Titer-Glo 3D (cat. no. G9683, Promega) reagent was added. Luminescence readouts were the same as described above for 2D culture.

T1 sequence (P40337 whole entry): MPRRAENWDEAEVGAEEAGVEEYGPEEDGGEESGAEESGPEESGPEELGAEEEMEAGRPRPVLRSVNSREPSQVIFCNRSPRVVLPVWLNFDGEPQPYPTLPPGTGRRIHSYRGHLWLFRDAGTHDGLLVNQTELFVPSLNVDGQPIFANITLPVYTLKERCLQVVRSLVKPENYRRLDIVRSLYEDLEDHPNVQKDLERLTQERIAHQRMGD

Consider `Cc1ncsc1-c1ccc(C(C)NC(=O)C2CC(O)CN2C(=O)C(NC(=O)COCCOCCNC(=O)CC(NC(=O)CCc2cn(CCOCCOCCOCCOCC(=O)NC(CC(=O)NCCOCCOCCNC(=O)CC3N=C(c4ccc(Cl)cc4)c4c(sc(C)c4C)-n4c(C)nnc43)C(=O)NCCOCCOCCNC(=O)CC3N=C(c4ccc(Cl)cc4)c4c(sc(C)c4C)-n4c(C)nnc43)nn2)C(=O)NCCOCCOCC(=O)NC(C(=O)N2CC(O)CC2C(=O)NC(C)c2ccc(-c3scnc3C)cc2)C(C)(C)C)C(C)(C)C)cc1` (centres unmarked) [2J2V], for which the VHL homo-degradation entry in assay [1] is listed as “did induce homo-degradation of VHL”.

Regarding `Cc1ncsc1-c1ccc(CNC(=O)C2CC(O)CN2C(=O)C(NC(=O)COCCOCCOCCNC(=O)CC2N=C(c3ccc(Cl)cc3)c3c(sc(C)c3C)-n3c(C)nnc32)C(C)(C)C)cc1` (centres unmarked) [MZ1, reference compound], the EC50 is 400 nM in assay [2], > 10000 nM in assay [3], 100 nM in assay [4] and 80 nM in assay [5].
